Values quoted from earlier work as cited in patent US12440441B2 (LIQMEDS WORLDWIDE LIMITED, priority 2021, dated 2025).

Tests used:
calcium channel = conditions: Stopher

| solubility in ethanol (ethanol) | solubility in water (water) | Structure (SMILES) | calcium antagonist activity relative to amlodipine (calcium channel) |
| --- | --- | --- | --- |
| sparingly soluble | slightly soluble | CCOC(=O)C1=C(COCCN)NC(C)=C(C(=O)OC)C1c1ccccc1Cl (stereo not drawn) [Amlodipine besylate, amlodipine besylate] | – |
| – | – | CCOC(=O)c1c(COCCN)nc(C)c(C(=O)OC)c1-c1ccccc1Cl [Impurity A, Amlodipine Related Substance A] | does not show any significant calcium antagonist activity |
